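These data come from cells grown in 96-well plates and exposed to compound for 48 hours at five concentrations. Abbreviation: GI50, concentration required for 50% inhibition of growth.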 Calls of active or inactive are those of the source. No stated cut-off is given here; in the data, active = GI50 up to about 1.1 µM and inactive = higher.
Legend:
Experiment in all cases: DTP human tumour cell line panel, 48 h
[1] = system: 786-0
[2] = system: A498
[3] = system: HCT-116
[4] = system: IGROV-1
[5] = system: K562
[6] = system: KM12
[7] = system: M14
[8] = system: M19-MEL
[9] = system: MOLT-4
[10] = system: OVCAR-3
[11] = system: OVCAR-4
[12] = system: OVCAR-8
[13] = system: SK-MEL-28
[14] = system: SK-MEL-5
[15] = system: SN12C
[16] = system: UO-31
[17] = system: HL-60
[18] = system: RPMI-8226

| Compound | GI50 [1] | GI50 [2] | GI50 [3] | GI50 [4] | GI50 [5] | GI50 [6] | GI50 [7] | GI50 [8] | GI50 [9] | GI50 [10] | GI50 [11] | GI50 [12] | GI50 [13] | GI50 [14] | GI50 [15] | GI50 [16] | GI50 [17] | GI50 [18] |
| --- | --- | --- | --- | --- | --- | --- | --- | --- | --- | --- | --- | --- | --- | --- | --- | --- | --- | --- |
| COc1cc(C)c(O)c(C(=O)O)c1 | > 100 µM (inactive) | > 100 µM (inactive) | > 100 µM (inactive) | > 100 µM (inactive) | > 100 µM (inactive) | > 100 µM (inactive) | > 100 µM (inactive) | > 100 µM (inactive) | > 100 µM (inactive) | > 100 µM (inactive) | > 100 µM (inactive) | > 100 µM (inactive) | > 100 µM (inactive) | > 100 µM (inactive) | > 100 µM (inactive) | > 100 µM (inactive) | – | – |
| Cc1nc(N)sc1C(=O)/C=C\c1ccc2c(c1)OCO2 | > 100 µM (inactive) | > 100 µM (inactive) | > 100 µM (inactive) | > 100 µM (inactive) | > 100 µM (inactive) | > 100 µM (inactive) | > 100 µM (inactive) | > 100 µM (inactive) | > 100 µM (inactive) | > 100 µM (inactive) | > 100 µM (inactive) | > 100 µM (inactive) | > 100 µM (inactive) | > 100 µM (inactive) | > 100 µM (inactive) | > 100 µM (inactive) | > 100 µM (inactive) | > 100 µM (inactive) |
| C=CC1(NS(=O)(=O)c2ccc(C)cc2)CCC(C(C)(C)C)CC1 (stereo not given) | 46.8 µM (inactive) | > 100 µM (inactive) | > 100 µM (inactive) | 76.2 µM (inactive) | > 100 µM (inactive) | > 100 µM (inactive) | 98.6 µM (inactive) | > 100 µM (inactive) | > 100 µM (inactive) | 21.6 µM (inactive) | 91.6 µM (inactive) | 52.8 µM (inactive) | > 100 µM (inactive) | > 100 µM (inactive) | > 100 µM (inactive) | > 100 µM (inactive) | 70.1 µM (inactive) | 17.5 µM (inactive) |
| NC(=O)CC(N/C=C1/N=C(c2ccccc2)OC1=O)C(=O)O (stereo not given) | > 100 µM (inactive) | > 100 µM (inactive) | > 100 µM (inactive) | > 100 µM (inactive) | > 100 µM (inactive) | > 100 µM (inactive) | > 100 µM (inactive) | > 100 µM (inactive) | – | > 100 µM (inactive) | > 100 µM (inactive) | > 100 µM (inactive) | > 100 µM (inactive) | > 100 µM (inactive) | – | > 100 µM (inactive) | > 100 µM (inactive) | > 100 µM (inactive) |
| COc1ccc(/C=C2\C(=O)N(NC(C)=O)c3ccccc32)cc1 | > 100 µM (inactive) | > 100 µM (inactive) | 63.4 µM (inactive) | > 100 µM (inactive) | 28.6 µM (inactive) | 87.9 µM (inactive) | > 100 µM (inactive) | > 100 µM (inactive) | 40.9 µM (inactive) | 56.4 µM (inactive) | > 100 µM (inactive) | 48.1 µM (inactive) | > 100 µM (inactive) | 46.2 µM (inactive) | > 100 µM (inactive) | 37.4 µM (inactive) | – | 37.4 µM (inactive) |
| CN1N=C2NCCNC3=NN(C)/C(=N/CC/N=C/1S2)S3 | > 100 µM (inactive) | > 100 µM (inactive) | > 100 µM (inactive) | > 100 µM (inactive) | > 100 µM (inactive) | > 100 µM (inactive) | > 100 µM (inactive) | > 100 µM (inactive) | > 100 µM (inactive) | – | > 100 µM (inactive) | > 100 µM (inactive) | > 100 µM (inactive) | > 100 µM (inactive) | > 100 µM (inactive) | – | > 100 µM (inactive) | > 100 µM (inactive) |
| COc1cccc2c1C(=O)c1c(O)c3c(c(O)c1C2=O)C[C@@](O)(C(C)=O)C[C@@H]3OC1CC([N+]([O-])(Cc2ccccc2)Cc2ccccc2)C(O)C(C)O1 (stereo not given in full) | 1.44 µM (inactive) | 2.46 µM (inactive) | – | 1.36 µM (inactive) | 1.7 µM (inactive) | 1.48 µM (inactive) | 1.69 µM (inactive) | 1.43 µM (inactive) | 0.191 µM (active) | 1.73 µM (inactive) | 1.77 µM (inactive) | 0.774 µM (active) | – | 1.35 µM (inactive) | 1.06 µM (active) | 1.27 µM (inactive) | 1.42 µM (inactive) | 1.54 µM (inactive) |
| NC(CCCNc1cccc(O)c1)C(=O)O (stereo not given) | > 100 µM (inactive) | > 100 µM (inactive) | > 100 µM (inactive) | – | > 100 µM (inactive) | – | > 100 µM (inactive) | > 100 µM (inactive) | > 100 µM (inactive) | > 100 µM (inactive) | > 100 µM (inactive) | > 100 µM (inactive) | > 100 µM (inactive) | > 100 µM (inactive) | > 100 µM (inactive) | > 100 µM (inactive) | > 100 µM (inactive) | > 100 µM (inactive) |
| CC1(C)C(c2ccccc2)=NN(O)c2ccccc21 | > 100 µM (inactive) | > 100 µM (inactive) | > 100 µM (inactive) | > 100 µM (inactive) | > 100 µM (inactive) | > 100 µM (inactive) | > 100 µM (inactive) | > 100 µM (inactive) | > 100 µM (inactive) | > 100 µM (inactive) | > 100 µM (inactive) | > 100 µM (inactive) | > 100 µM (inactive) | > 100 µM (inactive) | – | – | > 100 µM (inactive) | > 100 µM (inactive) |
| O=C1c2ccccc2C2CCC1c1ccccc12 (stereo not given) | 38.8 µM (inactive) | 58.6 µM (inactive) | 19.6 µM (inactive) | 62.2 µM (inactive) | 23.6 µM (inactive) | 31.6 µM (inactive) | 36.5 µM (inactive) | 25.6 µM (inactive) | 18 µM (inactive) | 30.5 µM (inactive) | 30.1 µM (inactive) | 43.2 µM (inactive) | 32.9 µM (inactive) | 16.3 µM (inactive) | 43.8 µM (inactive) | 21.1 µM (inactive) | 15 µM (inactive) | 16 µM (inactive) |
| CCN(CC)CCC1CC/C(=C\c2ccc(OC)cc2)C1=O (stereo not given) | > 100 µM (inactive) | 74.8 µM (inactive) | 87.9 µM (inactive) | > 100 µM (inactive) | 40 µM (inactive) | > 100 µM (inactive) | 35.5 µM (inactive) | 54.8 µM (inactive) | 59.6 µM (inactive) | > 100 µM (inactive) | > 100 µM (inactive) | > 100 µM (inactive) | 74.8 µM (inactive) | 23.6 µM (inactive) | > 100 µM (inactive) | 58.1 µM (inactive) | 47.8 µM (inactive) | 40.9 µM (inactive) |
| Cc1ccc(/C=C/C(=O)CCN(C)C)cc1 | 17.9 µM (inactive) | > 100 µM (inactive) | 18.9 µM (inactive) | 20.8 µM (inactive) | 32 µM (inactive) | 4.62 µM (inactive) | 21.5 µM (inactive) | 19.7 µM (inactive) | 23.2 µM (inactive) | 20.3 µM (inactive) | 15.2 µM (inactive) | 15.9 µM (inactive) | 19.4 µM (inactive) | 19.4 µM (inactive) | 16.9 µM (inactive) | 18.3 µM (inactive) | 21.1 µM (inactive) | 19.3 µM (inactive) |
| COC(=O)C(C#N)=C1c2ccccc2Oc2ccccc21 | 63.7 µM (inactive) | > 100 µM (inactive) | – | 64.3 µM (inactive) | 31.5 µM (inactive) | > 100 µM (inactive) | 53.8 µM (inactive) | 60.1 µM (inactive) | 35.4 µM (inactive) | 21.5 µM (inactive) | 43.8 µM (inactive) | 43.4 µM (inactive) | 56.6 µM (inactive) | 33.9 µM (inactive) | 38.9 µM (inactive) | > 100 µM (inactive) | 20.8 µM (inactive) | 18.8 µM (inactive) |
| O=C1C(=Cc2ccc([N+](=O)[O-])o2)C(=O)N(CCc2ccccc2)S(=O)(=O)N1CCc1ccccc1 | 20.3 µM (inactive) | – | 16.3 µM (inactive) | > 100 µM (inactive) | 37 µM (inactive) | > 100 µM (inactive) | 15.4 µM (inactive) | 17.7 µM (inactive) | 19.2 µM (inactive) | 17.4 µM (inactive) | 16.3 µM (inactive) | 28.9 µM (inactive) | 14.6 µM (inactive) | 18.7 µM (inactive) | 50.4 µM (inactive) | 45.3 µM (inactive) | 12.6 µM (inactive) | 27.4 µM (inactive) |
| CCOC(=O)Oc1c(OC)cc(C(=O)NC2CCc3cc(OC)c(OC)c(OC)c3-c3ccc(SC)c(=O)cc32)cc1OC (stereo not given) | 0.239 µM (active) | 0.223 µM (active) | 0.0566 µM (active) | 0.0506 µM (active) | < 0.007 µM (active) | 0.0378 µM (active) | 0.138 µM (active) | 0.047 µM (active) | 0.157 µM (active) | 0.0322 µM (active) | 0.789 µM (active) | 0.092 µM (active) | 20.7 µM (inactive) | 0.0456 µM (active) | 0.0542 µM (active) | 1.5 µM (inactive) | < 0.007 µM (active) | – |
| O=C1c2ccccc2C(=O)c2c1cc(S(=O)(=O)O)c(O)c2O [Alizarin Red S] | > 100 µM (inactive) | > 100 µM (inactive) | > 100 µM (inactive) | > 100 µM (inactive) | > 100 µM (inactive) | > 100 µM (inactive) | > 100 µM (inactive) | > 100 µM (inactive) | > 100 µM (inactive) | > 100 µM (inactive) | > 100 µM (inactive) | > 100 µM (inactive) | > 100 µM (inactive) | – | > 100 µM (inactive) | > 100 µM (inactive) | – | > 100 µM (inactive) |

Source: ChEMBL document CHEMBL1201862, “PubChem BioAssay data set” (2004)
